Test results from patent publication US8664397B2, “Pyrrolopyridine-2-carboxylic acid amide derivative useful as inhibitor of glycogen phosphorylase” (Prosidion Limited, priority 2004, dated 2014).

What was measured:
[1] = thermogravimetric method, nitrogen flow, 5° C./min heating rate
Method: Thermogravimetric analysis was performed as follows: A sample of the material (ca. 4-5 mg) was heated in a platinum vessel using slow inert gas (nitrogen) flow with 5° C./min heating rate using Derivatograph C instrument.
Thermal stability data on the product of Example 1 were obtained by the thermogravimetric method described above.

[2] = biological target: T1, Rabbit muscle glycogen phosphorylase a (Oryctolagus cuniculus, UniProt P00489); assay: Glycogen phosphorylase assay in vitro (reverse direction, malachite green phosphate detection); assay type: biochemical; conditions: 50 mM Hepes pH 7.2, 7.5 mM glucose, 0.5 mM glucose-1-phosphate, 1 mg/mL glycogen, 30° C. for 30 min
T1 construct: purchased Sigma P1261; host or cells: rabbit muscle
T1 sequence (P00489 2-843 limits assumed): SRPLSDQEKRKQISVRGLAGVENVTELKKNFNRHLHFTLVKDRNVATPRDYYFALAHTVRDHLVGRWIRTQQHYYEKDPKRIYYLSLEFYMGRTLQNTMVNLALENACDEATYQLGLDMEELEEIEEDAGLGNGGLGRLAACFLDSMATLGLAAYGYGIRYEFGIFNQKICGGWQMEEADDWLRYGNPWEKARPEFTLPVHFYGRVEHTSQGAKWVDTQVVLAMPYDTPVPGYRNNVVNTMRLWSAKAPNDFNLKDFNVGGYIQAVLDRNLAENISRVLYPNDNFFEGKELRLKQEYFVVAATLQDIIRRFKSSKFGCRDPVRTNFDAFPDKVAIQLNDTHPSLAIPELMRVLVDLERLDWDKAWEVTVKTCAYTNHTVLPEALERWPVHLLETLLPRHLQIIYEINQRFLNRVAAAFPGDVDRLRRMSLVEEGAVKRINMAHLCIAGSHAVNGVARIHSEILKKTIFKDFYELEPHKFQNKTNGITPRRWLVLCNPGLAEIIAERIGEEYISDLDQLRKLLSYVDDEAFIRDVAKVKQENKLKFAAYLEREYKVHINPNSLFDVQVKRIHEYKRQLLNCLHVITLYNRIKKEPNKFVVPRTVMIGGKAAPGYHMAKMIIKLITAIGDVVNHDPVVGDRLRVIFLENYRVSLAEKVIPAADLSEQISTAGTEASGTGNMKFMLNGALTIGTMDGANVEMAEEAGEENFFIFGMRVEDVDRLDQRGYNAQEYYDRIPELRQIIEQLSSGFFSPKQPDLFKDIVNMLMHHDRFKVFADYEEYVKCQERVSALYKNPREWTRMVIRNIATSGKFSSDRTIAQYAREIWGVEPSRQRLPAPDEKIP
Excerpt: α-D-Glucose-1-phosphate (disodium salt), Glycogen, D-Glucose, Malachite Green Hydrochloride, Ammonium Molybdate tetrahydrate, BSA, HEPES and rabbit muscle phosphorylase a (P1261) were purchased from Sigma. All other reagents were analytical grade.
An assay for glycogen phosphorylase activity in the reverse direction was developed based on the method described by Engers et al., Can. J. Biochem., 1970, 48, 746-754]. Rabbit muscle glycogen phosphorylase a (Sigma) was reconstituted at a stock concentration of 100 μg/mL in 25 mM Tris/HCl. […] in a 96-well plate in a final volume of 100 μL containing 50 mM Hepes pH 7.2, 7.5 mM glucose, 0.5 mM glucose-1-phosphate and 1 mg/mL glycogen. After incubation at 30° C. for 30 min, the inorganic phosphate released from glucose-1-phosphate was measured by the addition of 150 μL of malachite green/molybdate solution prepared as follows: 5 mL of 4.2% ammonium molybdate in 4N HCl, 15 mL of 0.045% malachite green, 50 μL of Tween 20. Following a 30 min incubation at room temperature, the absorbance was measured at 620 nm. For IC50 determination, 10 μL of a serial dilution of compound (100 μM to 0.004 μM) in DMSO was added to each reaction in duplicate with the equivalent concentration of DMSO added to the control uninhibited reaction. Dose response curves were then obtained by plotting % inhibition versus log10 compound concentration. […]

| Structure (SMILES) | Thermal stability (temperature below which the substance appeared to be stable) [1] | IC50 [2] [µM] |
| --- | --- | --- |
| Cl.O=C(N[C@@H](Cc1ccc(F)cc1)C(=O)N1CCC(O)CC1)c1cc2cc(Cl)ncc2[nH]1 [Example 1] | below 190 °C |  |
| O=C(N[C@@H](Cc1ccc(F)cc1)C(=O)N1CCC(O)CC1)c1cc2cc(Cl)ncc2[nH]1 [Formula (I), 5-chloro-1H-pyrrolo[2,3-c]pyridine-2-carboxylic acid [1-(S)-(4-fluorobenzyl)-2-(4-hydroxypiperidin-1-yl)-2-oxoethyl]amide] |  | < 1000 |
